Test results reported in patent US9156840B2, “D2 antagonists, methods of synthesis and methods of use” (ALTOS THERAPEUTICS, LLC, priority 2010, dated 2015).
Structures can show the parent of a compound that is named as a salt.

Biological target: T1, human D2 receptor (Homo sapiens, UniProt P14416)
T1 construct: expressed in transfected cells; cDNA from Origene clones TC308892 and SC123573
Test: D2 receptor radioligand binding assay (membranes of HEK-293 cells expressing human D2 receptor)
Details: radioligand displacement, HEK293 membranes, 37° C. for 120 minutes; read-out: Affinity Score (IC50 values for D2 on a scale of 1 through 5)
Protocol: Affinity for the dopamine D2 receptor was tested in vitro, and the following describes the construction of cell lines expressing human D2 receptor, as well as the binding assays themselves.
Establishment of Stable Cell Lines Expressing Either the Cloned Human D2S Receptor or the Cloned Human D2L Receptor.
The human D2 receptor exists in two isoforms: the short form (D2S) and the long form (D2L). The two isoforms are generated from the D2 gene by alternative splicing and the D2L isoform differs from the D2S isoform by the addition of 29 amino acids in the third intracellular loop of its protein structure.
To establish HEK-293 cell lines stably expressing either the human D2S or the human D2L, the human dopamine D2S receptor (Genebank Accession Number NM_016574) and human dopamine D2L receptor (Genebank Accession Number BC021195) were amplified by PCR from Origene cDNA clones TC308892 and SC123573 (respectively) using the following primers: 5-[…]-3 (SEQ ID NO: 1) sense and 5-[…]-3 (SEQ ID NO: 2) antisense. The resulting PCR products were respectively cloned into pENTR-D-TOPO (Invitrogen), sequenced and then transferred into the pCDNA3.2-DEST (Invitrogen) using the LR-clonasc gateway reaction (Invitrogen) and sequenced again to verify the genes sequence.
HEK293 cells were maintained in Eagles Minimum Essential Medium (MEM) supplemented with 0.292 g/L L-glutamine and 10% (v/v) fetal calf serum at 37° C. in a 5% CO2 humidified atmosphere. Cells were grown to 60-80% confluency in 10 cm dishes before transfection. Transfection of the D2S and D2L containing pcDNA3.2-DEST into HEK-293 cells were performed using Lipofectamine 2000 (Invitrogen). Transfected cells were seeded and diluted 2 days after transfection and maintained in culture medium supplemented with 500 μg/mL G418. The HEK-293 cell line expressing the huD2S (R2D2S) and the huD2L (R2D2L) were maintained in culture medium supplemented with 500 μg/mL G418.
D2 Receptor Binding Assays
HEK293 cells were in Eagles Minimum Essential Medium (MEM) supplemented with 10% FBS, 0.292 g/liter L-glutamine, 10^5 units/liter penicillin, 100 mg/liter streptomycin and […] Geneticin at 37° C. in a 5% CO2 humidified atmosphere. Cells were grown to 80-90% confluence and harvested with cell stripper (Cellgro #25-056-CI). Cells were then washed with PBS (2×). Cells were either pelleted and frozen at −80° C. or membranes were prepared immediately.
Cells from pellet were resuspended in homogenization buffer (15 mM Tris*HCl, 2 mM MgCl2*6H2O, 0.3 mM EDTA, 1 mM EGTA pH 7.4 @ 4° C.). Cells were then homogenized using a Polytron (PT 1200) homogenizer at setting 6 for 10 seconds. Crude membranes were pelleted at 39, 412 g for 15 min, at 4° C. (2×) in a Sorval RC6 plus centrifuge. Membranes were finally resuspended in resuspension buffer (50 mM Tris*HCl, 120 mM NaCl, 10 mM MgCl2*6H2O, 1 mM EDTA pH 7.4 @ 4° C.) and sonicated (Fisher Sonic Dismembrator) at setting 5 for 10 seconds.
The radioligand binding assays were conducted in microtiter plates (Costar #3961) with a final volume of 1.0 mL.
The membranes were thawed at room temperature, briefly homogenized using a sonicator, diluted in assay buffer and kept on wet ice until being added to the assay plate. Membranes were diluted to a final target tissue concentration of 10 μg protein per well. The specific binding should be greater than 80% with less than 10% total radioligand bound to minimize ligand depletion errors.
First compound of the invention (50 μL) or assay buffer (50 mM Tris*HCl, 120 mM NaCl, 5 mM MgCl2*6H2O, 1 mM EDTA, 5 mM KCl pH 7.4 @37° C. plus 0.025% BSA), buffer (700 μL) and then membrane (200 μL) were added to the deep well assay plate, which was then shaken for 10 minutes. Finally, radioligand (50 μL) was added.
The assay plates were incubated at 37° C. for 120 minutes.
The assay plate were filtered over 0.3% PEI pretreated glass fiber filtermats (GF/C) using a Packard Filtermate cell harvester. […]

T1 sequence (P14416 whole entry): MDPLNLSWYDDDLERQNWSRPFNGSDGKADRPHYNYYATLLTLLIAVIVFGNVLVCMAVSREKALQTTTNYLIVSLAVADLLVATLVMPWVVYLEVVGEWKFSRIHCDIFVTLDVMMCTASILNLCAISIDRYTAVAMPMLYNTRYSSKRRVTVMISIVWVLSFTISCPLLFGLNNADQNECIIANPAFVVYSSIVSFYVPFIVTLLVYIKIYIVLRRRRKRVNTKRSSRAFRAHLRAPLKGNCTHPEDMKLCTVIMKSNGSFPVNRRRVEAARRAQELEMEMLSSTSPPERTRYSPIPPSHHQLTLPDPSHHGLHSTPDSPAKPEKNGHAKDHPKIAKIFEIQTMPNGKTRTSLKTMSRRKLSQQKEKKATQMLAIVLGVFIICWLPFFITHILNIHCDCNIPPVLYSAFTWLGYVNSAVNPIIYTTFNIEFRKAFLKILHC

SMILES	IC50
CS(=O)(=O)Nc1cccc(CN2CN(c3ccccc3)C3(CCN(CCCN4C(=O)C5(CC5)c5ccccc54)CC3)C2=O)c1 [Compound 212, N-(3-((4-Oxo-8-(3-(2′-oxospiro[cyclopropane-1,3′-indoline]-1′-yl)propyl)-1-phenyl-1,3,8-triazaspiro[4.5]decan-3-yl)methyl)phenyl)methanesulfonamide]	< 10 nM
CC1(C)C(=O)N(CCCN2CCC3(CC2)C(=O)N(Cc2ccc(C(=O)O)cc2)CN3c2ccccc2)c2ccccc21 [Compound 171, 4-((8-(3-(3,3-dimethyl-2-oxoindolin-1-yl)propyl)-4-oxo-1-phenyl-1,3,8-triazaspiro[4.5]decan-3-yl)methyl)benzoic acid, hydrochloride]	< 10 nM
O=C(O)c1cccc(CN2CN(c3ccccc3)C3(CCN(CCCN4C(=O)COc5ccccc54)CC3)C2=O)c1 [Compound 71, 3-((4-Oxo-8-(3-(3-oxo-2H-benzo[b][1,4]oxazin-4(3H)-yl)propyl)-1-phenyl-1,3,8-triazaspiro[4.5]decan-3-yl)methyl)benzoic acid]	< 10 nM
O=C(O)c1cccc(CN2CN(c3ccccc3)C3(CCN(CCCn4c(=O)[nH]c5ccccc54)CC3)C2=O)c1 [Compound 11, 3-((4-Oxo-8-(3-(2-oxo-2,3-dihydro-1H-benzo[d]imidazol-1-yl)propyl)-1-phenyl-1,3,8-triazaspiro[4.5]decan-3-yl)methyl)benzoic acid]	< 10 nM
CC(C)(Oc1ccc(CN2CN(c3ccccc3)C3(CCN(CCCn4c(=O)[nH]c5ccccc54)CC3)C2=O)cc1)C(=O)O [Compound 102, 2-Methyl-2-(4-((4-oxo-8-(3-(2-oxo-2,3-dihydro-1H-benzo[d]imidazol-1-yl)propyl)-1-phenyl-1,3,8-triazaspiro[4.5]decan-3-yl)methyl)phenoxy)propanoic acid]	< 10 nM
CS(=O)(=O)Nc1ccc(N2CN(c3ccccc3)C3(CCN(CCCN4C(=O)C5(CC5)c5ccccc54)CC3)C2=O)cc1 [Compound 216, N-(4-(4-Oxo-8-(3-(2′-oxospiro[cyclopropane-1,3′-indoline]-1′-yl)propyl)-1-phenyl-1,3,8-triazaspiro[4.5]decan-3-yl)phenyl)methanesulfonamide]	< 10 nM
O=C(O)c1cccc(CN2CN(c3ccccc3)C3(CCN(CCCC(=O)c4cccs4)CC3)C2=O)c1 [Compound 143, 3-((4-oxo-8-(4-oxo-4-(thiophen-2-yl)butyl)-1-phenyl-1,3,8-triazaspiro[4.5]decan-3-yl)methyl)benzoic acid, hydrochloride]	< 10 nM
O=C(O)c1cccc(CN2CN(c3ccccc3)C3(CCN(CCCn4nnc5ccccc54)CC3)C2=O)c1 [Compound 85, 3-((8-(3-(1H-Benzo[d][1,2,3]triazol-1-yl)propyl)-4-oxo-1-phenyl-1,3,8-triazaspiro[4.5]decan-3-yl)methyl)benzoic acid]	< 10 nM
O=C(CCCCCN1CN(c2ccccc2)C2(CCN(CCCn3c(=O)[nH]c4ccccc43)CC2)C1=O)OCc1ccccc1 [Compound 21, Benzyl 6-(4-oxo-8-(3-(2-oxo-2,3-dihydro-1H-benzo[d]imidazol-1-yl)propyl)-1-phenyl-1,3,8-triazaspiro[4.5]decan-3-yl)hexanoate]	< 10 nM
O=C(CCCN1CCC2(CC1)C(=O)N(c1ccccc1C(=O)O)CN2c1ccccc1)c1ccccc1 [Compound 180, 2-(4-oxo-8-(4-oxo-4-phenylbutyl)-1-phenyl-1,3,8-triazaspiro[4.5]decan-3-yl)benzoic acid]	< 10 nM
CC1(F)C(=O)N(CCCN2CCC3(CC2)C(=O)N(Cc2cccc(C(=O)O)c2)CN3c2ccc(F)cc2)c2ccccc21 (stereo not drawn) [Compound 164, 3-((8-(3-(3-Fluoro-3-methyl-2-oxoindolin-1-yl)propyl)-1-(4-fluorophenyl)-4-oxo-1,3,8-triazaspiro[4.5]decan-3-yl)methyl)benzoic acid]	< 10 nM
O=C(O)c1cccc(CN2CN(c3ccccc3)C3(CCN(CCCC4C(=O)Nc5ccccc54)CC3)C2=O)c1 (stereo not drawn) [Compound 160, 3-((4-oxo-8-(3-(2-oxoindolin-3-yl)propyl)-1-phenyl-1,3,8-triazaspiro[4.5]decan-3-yl)methyl)benzoic acid, hydrochloride]	< 10 nM
O=C(O)c1cccc(CN2CN(c3ccccc3)C3(CCN(CCCn4c(=O)[nH]c5ccc(Cl)cc54)CC3)C2=O)c1 [Compound 100, 3-((8-(3-(6-Chloro-2-oxo-2,3-dihydro-1H-benzo[d]imidazol-1-yl)propyl)-4-oxo-1-phenyl-1,3,8-triazaspiro[4.5]decan-3-yl)methyl)benzoic acid]	< 10 nM
O=C(O)c1ccccc1CN1CN(c2ccccc2)C2(CCN(CCCn3c(=O)[nH]c4ccccc43)CC2)C1=O [Compound 19, 2-((4-Oxo-8-(3-(2-oxo-2,3-dihydro-1H-benzo[d]imidazol-1-yl)propyl)-1-phenyl-1,3,8-triazaspiro[4.5]decan-3-yl)methyl)benzoic acid]	< 10 nM
CS(=O)(=O)Nc1ccc(N2CN(c3ccccc3)C3(CCN(CCCN4C(=O)Cc5ccccc54)CC3)C2=O)cc1 [Compound 215, N-(4-(4-oxo-8-(3-(2-oxoindolin-1-yl)propyl)-1-phenyl-1,3,8-triazaspiro[4.5]decan-3-yl)phenyl)methanesulfonamide]	< 10 nM
O=C(O)c1cccc(CN2CN(c3ccc(F)cc3)C3(CCN(CCCN4C(=O)C5(CC5)c5ccccc54)CC3)C2=O)c1 [Compound 138, 3-((1-(4-Fluorophenyl)-4-oxo-8-(3-(2′-oxospiro[cyclopropane-1,3′-indoline]-1′-yl)propyl)-1,3,8-triazaspiro[4.5]decan-3-yl)methyl)benzoic acid]	< 10 nM
CC1(C)C(=O)N(CCCN2CCC3(CC2)C(=O)N(Cc2ccccc2C(=O)O)CN3c2ccccc2)c2ccccc21 [Compound 137, 2-((8-(3-(3,3-Dimethyl-2-oxoindolin-1-yl)propyl)-4-oxo-1-phenyl-1,3,8-triazaspiro[4.5]decan-3-yl)methyl)benzoic acid]	< 10 nM
O=C(O)c1ccccc1CN1CN(c2ccccc2)C2(CCN(CCCn3c(=O)n(C4CC4)c4ccccc43)CC2)C1=O [Compound 155, 2-((8-(3-(3-cyclopropyl-2-oxo-2,3-dihydro-1H-benzo[d]imidazol-1-yl)propyl)-4-oxo-1-phenyl-1,3,8-triazaspiro[4.5]decan-3-yl)methyl)benzoic acid]	< 10 nM
COC(=O)[C@@H](c1ccccc1)N1CN(c2ccccc2)C2(CCN(CCCn3c(=O)[nH]c4ccccc43)CC2)C1=O [Compound 34, (R)-methyl 2-(4-oxo-8-(3-(2-oxo-2,3-dihydro-1H-benzo[d]imidazol-1-yl)propyl)-1-phenyl-1,3,8-triazaspiro[4.5]decan-3-yl)-2-phenylacetate]	< 10 nM
O=C(CCCN1CCC2(CC1)C(=O)N(Cc1ccccc1C(=O)O)CN2c1ccccc1)c1ccccc1 [Compound 154, 2-((4-oxo-8-(4-oxo-4-phenylbutyl)-1-phenyl-1,3,8-triazaspiro[4.5]decan-3-yl)methyl)benzoic acid]	< 10 nM
O=C(O)c1cccc(CN2CN(c3ccc(F)cc3)C3(CCN(CCCn4c(=O)[nH]c5ccccc54)CC3)C2=O)c1 [Compound 43, 3-((1-(4-Fluorophenyl)-4-oxo-8-(3-(2-oxo-2,3-dihydro-1H-benzo[d]imidazol-1-yl)propyl)-1,3,8-triazaspiro[4.5]decan-3-yl)methyl)benzoic acid]	< 10 nM
